ChEMBL document CHEMBL1201862, “PubChem BioAssay data set” (2004)
Calls of active or inactive are those of the source.

What was measured:
[1] = molecular target: Beta-galactosidase (Escherichia coli, UniProt Q8VNN2); experiment: PubChem AID 485352; format: functional
[2] = M. tuberculosis H37Rv growth inhibitors, H37Rv strain (AID 1626); format: functional
[3] = molecular target: T1, Type-1 angiotensin II receptor (Homo sapiens, UniProt P30556); experiment: antagonism of angiotensin II type 1 receptor – cell-based, uHTS hits, selectivity assay for APJ receptor antagonist project, dose response (AID 463214); format: functional;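 also: antagonist potency against angiotensin II stimulated AT1 response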
T1 sequence (P30556 whole entry): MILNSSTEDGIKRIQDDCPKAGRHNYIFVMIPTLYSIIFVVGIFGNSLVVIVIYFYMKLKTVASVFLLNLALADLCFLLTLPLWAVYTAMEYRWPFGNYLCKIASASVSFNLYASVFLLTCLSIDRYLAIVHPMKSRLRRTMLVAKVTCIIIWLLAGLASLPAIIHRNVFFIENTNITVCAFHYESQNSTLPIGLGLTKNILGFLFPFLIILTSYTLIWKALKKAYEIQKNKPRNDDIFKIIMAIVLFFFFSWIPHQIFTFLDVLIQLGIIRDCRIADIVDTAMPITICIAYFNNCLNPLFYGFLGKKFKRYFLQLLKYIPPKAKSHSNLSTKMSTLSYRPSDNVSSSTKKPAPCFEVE

[4] = NIH-3T3 fibroblast cytotoxicity, dose response, cytotoxicity control, cell-based, fluorescence, Alamar Blue, secondary assay (AID 2327); format: functional;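 also: NIH-3T3 mouse fibroblasts cultured with fluconazole at 8 µg/mL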
[5] = fluconazole-exposed Candida albicans growth modulators – fluorescence, retest, confirmation (AID 2467); format: functional, cell-based
[6] = molecular target: T2, Serine/threonine-protein phosphatase (Candida dubliniensis (strain CD36 / CBS 7987 / NCPF 3949 / NRRLY-17841) (Yeast), UniProt B9W6M3); experiment: blockers of CaCl2-induced CDRE-lacZ signaling – S. cerevisiae, luminescence, secondary, dose response (AID 2388); format: functional, cell-based;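 also: yeast reporter cells carrying a calcineurin-responsive lacZ construct stimulated with calcium chloride; luminescent beta-galactosidase reporter signal in whole cells rather than isolated phosphatase activity; potency for inhibition where a drop in reporter signal means calcineurin blockade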
T2 sequence (B9W6M3 whole entry): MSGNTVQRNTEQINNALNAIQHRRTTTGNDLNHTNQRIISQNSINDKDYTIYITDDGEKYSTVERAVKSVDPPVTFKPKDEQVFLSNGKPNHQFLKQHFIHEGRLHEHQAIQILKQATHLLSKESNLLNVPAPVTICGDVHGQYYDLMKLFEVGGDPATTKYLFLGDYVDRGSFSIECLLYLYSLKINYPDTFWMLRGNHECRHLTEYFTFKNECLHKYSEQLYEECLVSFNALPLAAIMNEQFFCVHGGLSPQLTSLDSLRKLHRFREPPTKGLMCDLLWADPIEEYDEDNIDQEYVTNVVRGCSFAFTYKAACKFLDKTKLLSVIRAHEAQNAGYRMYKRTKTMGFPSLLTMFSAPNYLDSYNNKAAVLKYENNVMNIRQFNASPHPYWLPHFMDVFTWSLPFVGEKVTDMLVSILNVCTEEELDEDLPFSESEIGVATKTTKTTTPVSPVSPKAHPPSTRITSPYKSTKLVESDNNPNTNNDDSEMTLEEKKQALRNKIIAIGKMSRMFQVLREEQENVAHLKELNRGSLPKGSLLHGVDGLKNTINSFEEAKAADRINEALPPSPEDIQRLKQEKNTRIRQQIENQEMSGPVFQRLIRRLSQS

[7] = molecular target: ATP-dependent molecular chaperone HSP82 (Candida albicans (strain WO-1) (Yeast), UniProt C4YTQ8); experiment: steroid-induced GRE reporter decrease in yeast – S. cerevisiae, luminescence, Hsp90 inhibitor project, dose response (AID 2400); format: functional, cell-based;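 also: beta-galactosidase luminescence from glucocorticoid response element reporter as proxy for Hsp90 function; inhibitor potency where signal loss means Hsp90 inhibition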
[8] = Trypanosoma cruzi growth suppression in host cells – NIH3T3 host cells, beta-gal luminescence, confirmation (AID 2044); format: functional, cell-based;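 also: intracellular parasites grown in NIH/3T3 mouse fibroblasts as host cells; luminescent beta-galactosidase reporter signal from transgenic T. cruzi replicating inside host cells; inhibitors lower the luminescence signal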
[9] = NIH3T3 cell viability loss – ATP luminescence, mouse fibroblasts, counter-screen, dose response (AID 2010); format: functional, cell-based;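 also: cells exposed to compound for about 90 hours before reading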
[10] = Luminescence Cell-Based Dose Retest to Confirm Inhibitors of Cancer Stem Cells. [Related pubchem assays (depositor defined):AID2717, AID2721]; format: functional; settings: Homo sapiens
[11] = viability loss of HMLE_sh_eGFP cells – cell-based, luminescence, counter-screen for HMLE_sh_ECad selective toxicity project, dose response (AID 463074); format: functional, Homo sapiens;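 also: HMLE human mammary epithelial cells expressing control shRNA against eGFP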
[12] = molecular target: Peroxisome proliferator-activated receptor gamma/Nuclear receptor coactivator 1 (Homo sapiens, UniProt P37231); experiment: (§1) TR-FRET dose response biochemical High Throughput Screening assay for agonists of the steroid receptor coactivator 1 (SRC-1) recruitment by the peroxisome proliferator-activated receptor gamma (PPAR gamma): non-selective agonists. [Related pubchem assays (depositor defined):AID1300, AID1808, AID504735, AID631]; format: protein assay
[13] = molecular target: Peroxisome proliferator-activated receptor gamma/Nuclear receptor coactivator 3 (Homo sapiens, UniProt P37231); experiment: as §1, with “3 (SRC-3)” for “1 (SRC-1)”, “assays: 1301 (Confirmation screen.), 1048 (Primary screen.)]” for “assays (depositor defined):AID1300, AID1808, AID504735, AID631]”; format: functional
[14] = molecular target: Peroxisome proliferator-activated receptor gamma/Nuclear receptor coactivator 2 (Homo sapiens, UniProt P37231); experiment: TR-FRET dose response biochemical High Throughput Screening assay for agonists of the steroid receptor coactivator 2 (SRC-2) recruitment by the peroxisome proliferator-activated receptor gamma (PPAR gamma): non-selective agonists. [Related pubchem assays: 1297, 1032 ]; format: functional
[15] = molecular target: Dual specificity tyrosine-phosphorylation-regulated kinase 1A (Rattus norvegicus, UniProt Q63470); format: biochemical, Homo sapiens
[16] = molecular target: T3, Rac GTPase-activating protein 1 (Homo sapiens, UniProt Q9H0H5); experiment: blockers of MgcRacGAP-driven Rac1 GTP hydrolysis – biochemical, ADP Hunter fluorescence, primary and confirmatory, confirmation (AID 624330); format: functional
T3 sequence (Q9H0H5 whole entry): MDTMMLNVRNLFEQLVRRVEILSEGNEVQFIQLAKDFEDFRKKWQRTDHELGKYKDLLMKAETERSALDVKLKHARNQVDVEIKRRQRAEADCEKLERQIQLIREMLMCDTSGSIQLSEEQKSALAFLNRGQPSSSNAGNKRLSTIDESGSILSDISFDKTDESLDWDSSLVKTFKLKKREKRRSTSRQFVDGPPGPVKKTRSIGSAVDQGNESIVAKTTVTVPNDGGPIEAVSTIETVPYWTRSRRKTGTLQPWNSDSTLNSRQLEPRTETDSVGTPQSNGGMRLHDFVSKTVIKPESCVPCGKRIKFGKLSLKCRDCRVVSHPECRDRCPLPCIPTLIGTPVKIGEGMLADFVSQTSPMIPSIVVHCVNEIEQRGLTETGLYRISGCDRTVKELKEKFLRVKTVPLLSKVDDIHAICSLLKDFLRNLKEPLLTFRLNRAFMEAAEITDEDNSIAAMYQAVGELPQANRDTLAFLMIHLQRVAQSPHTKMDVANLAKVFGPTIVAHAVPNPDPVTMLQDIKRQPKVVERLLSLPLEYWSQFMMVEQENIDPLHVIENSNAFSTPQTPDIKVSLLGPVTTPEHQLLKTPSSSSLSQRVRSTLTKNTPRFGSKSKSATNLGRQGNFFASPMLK

Chain of Beta-galactosidase (Q8VNN2 whole entry): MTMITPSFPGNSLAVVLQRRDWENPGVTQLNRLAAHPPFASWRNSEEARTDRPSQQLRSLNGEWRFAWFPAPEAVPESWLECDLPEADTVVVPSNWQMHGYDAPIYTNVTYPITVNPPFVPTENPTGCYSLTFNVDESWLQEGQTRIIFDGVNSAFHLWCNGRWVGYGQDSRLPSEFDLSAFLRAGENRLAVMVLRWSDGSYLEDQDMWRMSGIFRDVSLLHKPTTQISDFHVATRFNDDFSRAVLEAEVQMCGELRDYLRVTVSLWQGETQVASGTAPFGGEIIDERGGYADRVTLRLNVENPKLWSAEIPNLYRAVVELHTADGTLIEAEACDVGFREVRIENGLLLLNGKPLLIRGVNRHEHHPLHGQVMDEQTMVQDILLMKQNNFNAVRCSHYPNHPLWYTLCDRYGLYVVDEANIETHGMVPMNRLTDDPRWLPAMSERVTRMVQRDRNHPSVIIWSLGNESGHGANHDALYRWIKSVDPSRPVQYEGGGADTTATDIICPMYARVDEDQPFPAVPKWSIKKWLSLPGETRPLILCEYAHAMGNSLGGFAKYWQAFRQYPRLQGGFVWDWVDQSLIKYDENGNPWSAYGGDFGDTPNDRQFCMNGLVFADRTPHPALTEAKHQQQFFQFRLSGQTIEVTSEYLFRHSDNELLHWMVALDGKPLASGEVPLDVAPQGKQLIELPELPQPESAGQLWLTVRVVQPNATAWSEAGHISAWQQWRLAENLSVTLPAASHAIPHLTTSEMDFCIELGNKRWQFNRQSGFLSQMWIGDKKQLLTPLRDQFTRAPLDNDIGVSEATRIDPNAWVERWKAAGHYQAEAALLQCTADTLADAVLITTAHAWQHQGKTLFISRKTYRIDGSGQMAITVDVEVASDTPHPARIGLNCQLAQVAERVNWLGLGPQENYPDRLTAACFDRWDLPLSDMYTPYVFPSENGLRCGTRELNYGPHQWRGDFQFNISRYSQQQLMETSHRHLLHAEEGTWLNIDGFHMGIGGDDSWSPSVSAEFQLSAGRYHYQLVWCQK
Chain of ATP-dependent molecular chaperone HSP82 (C4YTQ8 whole entry): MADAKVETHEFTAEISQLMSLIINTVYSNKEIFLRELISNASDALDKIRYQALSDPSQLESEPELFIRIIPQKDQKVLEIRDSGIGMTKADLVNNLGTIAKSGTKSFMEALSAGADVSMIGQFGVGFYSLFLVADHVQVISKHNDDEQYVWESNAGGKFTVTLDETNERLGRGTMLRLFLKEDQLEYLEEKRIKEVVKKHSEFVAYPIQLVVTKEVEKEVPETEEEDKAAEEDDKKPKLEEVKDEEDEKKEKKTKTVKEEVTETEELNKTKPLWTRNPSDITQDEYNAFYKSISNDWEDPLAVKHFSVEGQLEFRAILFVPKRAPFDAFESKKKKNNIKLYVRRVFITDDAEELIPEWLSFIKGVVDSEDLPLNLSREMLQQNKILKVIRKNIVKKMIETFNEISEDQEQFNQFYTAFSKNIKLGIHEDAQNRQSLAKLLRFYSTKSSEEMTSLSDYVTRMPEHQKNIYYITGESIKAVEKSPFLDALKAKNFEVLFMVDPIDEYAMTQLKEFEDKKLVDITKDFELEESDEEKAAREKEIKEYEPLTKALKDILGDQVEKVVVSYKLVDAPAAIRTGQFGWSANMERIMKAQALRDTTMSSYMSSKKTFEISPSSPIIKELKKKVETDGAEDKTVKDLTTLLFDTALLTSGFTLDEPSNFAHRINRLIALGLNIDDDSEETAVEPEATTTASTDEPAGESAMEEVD
Chain of Peroxisome proliferator-activated receptor gamma/Nuclear receptor coactivator 1 (P37231 whole entry): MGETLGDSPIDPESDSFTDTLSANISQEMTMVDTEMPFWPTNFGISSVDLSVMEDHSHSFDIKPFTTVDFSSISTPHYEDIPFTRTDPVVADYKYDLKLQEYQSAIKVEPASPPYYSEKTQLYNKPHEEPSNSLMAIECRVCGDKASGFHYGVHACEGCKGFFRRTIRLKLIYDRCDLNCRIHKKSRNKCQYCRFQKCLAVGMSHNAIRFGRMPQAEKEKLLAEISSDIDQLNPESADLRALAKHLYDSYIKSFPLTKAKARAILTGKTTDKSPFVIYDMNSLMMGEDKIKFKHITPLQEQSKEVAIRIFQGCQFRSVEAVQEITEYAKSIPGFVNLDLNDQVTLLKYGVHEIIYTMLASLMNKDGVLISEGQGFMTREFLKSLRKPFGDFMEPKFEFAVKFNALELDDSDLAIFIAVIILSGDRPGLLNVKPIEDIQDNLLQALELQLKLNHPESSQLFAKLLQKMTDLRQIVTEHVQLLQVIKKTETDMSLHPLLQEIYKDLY
Chain of Peroxisome proliferator-activated receptor gamma/Nuclear receptor coactivator 1 (Q15788 whole entry, further chain): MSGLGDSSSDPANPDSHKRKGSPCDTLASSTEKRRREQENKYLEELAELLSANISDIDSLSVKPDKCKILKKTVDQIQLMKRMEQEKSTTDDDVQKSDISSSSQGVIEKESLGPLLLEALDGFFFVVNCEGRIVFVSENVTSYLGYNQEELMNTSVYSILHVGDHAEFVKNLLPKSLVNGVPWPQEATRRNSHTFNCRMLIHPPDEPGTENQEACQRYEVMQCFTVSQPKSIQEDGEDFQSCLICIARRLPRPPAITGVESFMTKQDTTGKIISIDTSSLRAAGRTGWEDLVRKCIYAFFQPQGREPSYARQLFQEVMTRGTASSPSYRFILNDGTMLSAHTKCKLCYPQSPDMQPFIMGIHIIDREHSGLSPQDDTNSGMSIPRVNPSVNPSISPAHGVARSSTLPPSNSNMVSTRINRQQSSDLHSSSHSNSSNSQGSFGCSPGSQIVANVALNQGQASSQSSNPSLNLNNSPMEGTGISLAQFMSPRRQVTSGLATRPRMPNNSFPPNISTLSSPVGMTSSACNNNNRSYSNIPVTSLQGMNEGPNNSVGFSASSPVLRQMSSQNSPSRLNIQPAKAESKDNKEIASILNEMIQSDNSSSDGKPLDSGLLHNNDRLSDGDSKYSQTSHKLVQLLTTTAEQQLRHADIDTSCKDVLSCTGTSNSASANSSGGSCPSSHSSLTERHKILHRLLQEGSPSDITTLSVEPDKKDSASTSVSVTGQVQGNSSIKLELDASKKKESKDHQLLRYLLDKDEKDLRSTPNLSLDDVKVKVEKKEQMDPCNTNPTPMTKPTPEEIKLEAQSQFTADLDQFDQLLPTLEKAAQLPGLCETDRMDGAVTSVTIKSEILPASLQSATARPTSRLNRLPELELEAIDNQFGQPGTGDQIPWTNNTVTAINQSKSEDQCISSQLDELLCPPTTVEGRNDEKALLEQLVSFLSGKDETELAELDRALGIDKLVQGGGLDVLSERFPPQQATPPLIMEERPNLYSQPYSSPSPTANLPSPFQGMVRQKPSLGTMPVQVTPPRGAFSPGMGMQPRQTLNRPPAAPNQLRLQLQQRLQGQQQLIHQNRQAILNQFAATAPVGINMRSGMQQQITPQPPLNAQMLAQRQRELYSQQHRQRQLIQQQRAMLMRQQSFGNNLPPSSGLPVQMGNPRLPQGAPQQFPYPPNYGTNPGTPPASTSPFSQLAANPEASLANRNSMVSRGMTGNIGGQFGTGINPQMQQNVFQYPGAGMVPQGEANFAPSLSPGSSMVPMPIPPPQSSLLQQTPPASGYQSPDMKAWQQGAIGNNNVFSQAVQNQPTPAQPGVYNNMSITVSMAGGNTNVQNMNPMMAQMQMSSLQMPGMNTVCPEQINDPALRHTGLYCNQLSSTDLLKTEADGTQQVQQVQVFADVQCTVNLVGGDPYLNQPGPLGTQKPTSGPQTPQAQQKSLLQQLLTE

SMILES	EC50 [1]	IC50 [3]	EC50 [4]	EC50 [5]	EC50 [6]	EC50 [7]	other results
COc1ccc(/N=C2/C(=O)N3c4c(cccc42)C(C)=CC3(C)C)cc1	> 40 µM (inactive)	> 40 µM (not active)					IC50 [2]: > 100 µM (active)
O=C(CNC(=O)c1ccco1)NCC(=O)OCC(=O)c1ccc(Cl)c([N+](=O)[O-])c1	> 40 µM (inactive)	7.54 µM (active)					
Nc1c(S(=O)(=O)c2ccccc2)c2nc3ccccc3nc2n1CCN1CCOCC1			> 160 µM (inactive)	0.874 µM (active)	> 180 µM (inactive)	> 160 µM (inactive)	
O=C(C1=C[C@H](c2ccc(C(F)(F)F)cc2)C[C@H](OCc2ccc(CO)cc2)O1)N1CCN(Cc2ccc3c(c2)OCO3)CC1							EC50 [8]: 0.265 µM (active); EC50 [9]: > 60 µM (not active); AC50 [10]: 4.74 µM (active); AC50 [11]: 25.8 µM (active)
CNC(=O)Nc1cc(C(F)(F)F)cc(C(F)(F)F)c1			> 150 µM (inactive)	1.34 µM (active)	> 180 µM (inactive)	> 150 µM (inactive)	
COc1cc(-c2nc3ccccc3s2)ccc1O							EC50 [12]: 11.7 µM (inactive); EC50 [13]: > 79.4 µM (not active); EC50 [14]: 13 µM (not active); AC50 [15]: 7.81 µM (active); IC50 [16]: 16.1 µM (active)
